Test results: patent publication US20260200901A1, “NOVEL COMPOUNDS AS MODULATORS OF NLRP3 INHIBITION” (Hoffmann-La Roche Inc., priority 2022, published 2026)
Counter-ions that a name gives are not always drawn.

Tests used:
NLRP3 [1] = molecular target: T1, NLRP3 (Homo sapiens, UniProt Q96P20); assay: THP-1 cells pyroptosis assay
Protocol: The cells were routinely passaged and grown to confluency (~10^6 cells/ml). On the day of the experiment, THP-1 cells were harvested and resuspended into RPMI medium (without FBS). […] To this diluted cell solution was added LPS (Sigma #L4524) to give a 1 μg/ml Final Assay Concentration (FAC). 40 μl of the final preparation was aliquoted into each well of a 96-well plate. The plate thus prepared was used for compound screening.

NLRP3 [2] = molecular target: T1, NLRP3; assay: Human whole blood IL-1β release assay; type: cell-based; set-up: Human whole blood in Li-heparin tubes was obtained from healthy donors; from tissue; host or cells: human whole blood from healthy donors; conditions: LPS 1 μg/ml, nigericin 10 μM, IL-1β AlphaLisa
Excerpt: For systemic delivery, the ability to inhibit NLRP3 when the compounds are present within the bloodstream is of great importance.

[3] = molecular target: T2, hERG cardiac potassium channel (Homo sapiens, UniProt Q12809); assay: hERG screening assay (automated patch clamp, CHO crelox hERG cells); type: cell-based; conditions: whole-cell patch clamp, 35-37° C.
T2 construct: host or cells: CHO crelox hERG cell line (Chinese hamster)
Excerpt: In the drug development process of small molecules, one of the most frequent adverse side effects, leading to the failure of drugs, is the cardiac arrhythmias. […] Having no or low inhibition of the hERG cardiac potassium channel is therefore considered as beneficial.
Ready-to-use frozen instant CHO-hERG cells were cryopreserved at Evotec (Germany) and used directly in the experiments.
The extracellular solution contains (in mM): NaCl 150; KCl 4; CaCl2 1; MgCl2 1; HEPES 10; pH 7.2-7.4 with NaOH, osmolarity 290-330 mOsm. The internal solution contains (in mM): KCl, 10; KF, 100; NaCl, 10; HEPES, 10; EGTA, 20; pH=7.0-7.4 with KOH, osmolarity 260-300 mOsm.
The effects of a compound on hERG K+-currents parameters will be evaluated at 2 concentrations in at least 4 cells.
K+ currents are measured with the patch-voltage-clamp technique in the whole-cell configuration at 35-37° C.
The amplitudes of IKhERG were recorded in each concentration of drug and they were compared to the vehicle control values (taken as 100%) to define fractional blocks. The concentration-response data were fitted with the following relationship:
Concentration-response curves were fitted by non-linear regression analysis using EworkBook suite (ID Business Solutions Ltd, UK). Data fit was done with the 4 Parameter Logistic Model (fit=(A+(B/(1+((x/C)^D)))), where A=0 and B=100).

human P-gp = molecular target: T3, human P-gp (Homo sapiens, UniProt P08183); assay: Transcellular human P-gp assay (transfected LLC-PK1 cells); type: in vitro ADME; conditions: LLC-PK1 cells over-expressing human P-gp
T3 construct: expressed in transfected cells; host or cells: LLC-PK1 cells (porcine kidney epithelial cells)
Excerpt: The general assay uses transfected LLC-PK1 cells (porcine kidney epithelial cells) over-expressing human or mouse P-gp, cultured on 96 well semi-permeable filter membrane plates, where they form a polarized monolayer with tight junctions, and act as a barrier between the apical and basolateral compartment.
P-gp is expressed in the apical-facing membrane of the monolayer.

T1 sequence (Q96P20 whole entry): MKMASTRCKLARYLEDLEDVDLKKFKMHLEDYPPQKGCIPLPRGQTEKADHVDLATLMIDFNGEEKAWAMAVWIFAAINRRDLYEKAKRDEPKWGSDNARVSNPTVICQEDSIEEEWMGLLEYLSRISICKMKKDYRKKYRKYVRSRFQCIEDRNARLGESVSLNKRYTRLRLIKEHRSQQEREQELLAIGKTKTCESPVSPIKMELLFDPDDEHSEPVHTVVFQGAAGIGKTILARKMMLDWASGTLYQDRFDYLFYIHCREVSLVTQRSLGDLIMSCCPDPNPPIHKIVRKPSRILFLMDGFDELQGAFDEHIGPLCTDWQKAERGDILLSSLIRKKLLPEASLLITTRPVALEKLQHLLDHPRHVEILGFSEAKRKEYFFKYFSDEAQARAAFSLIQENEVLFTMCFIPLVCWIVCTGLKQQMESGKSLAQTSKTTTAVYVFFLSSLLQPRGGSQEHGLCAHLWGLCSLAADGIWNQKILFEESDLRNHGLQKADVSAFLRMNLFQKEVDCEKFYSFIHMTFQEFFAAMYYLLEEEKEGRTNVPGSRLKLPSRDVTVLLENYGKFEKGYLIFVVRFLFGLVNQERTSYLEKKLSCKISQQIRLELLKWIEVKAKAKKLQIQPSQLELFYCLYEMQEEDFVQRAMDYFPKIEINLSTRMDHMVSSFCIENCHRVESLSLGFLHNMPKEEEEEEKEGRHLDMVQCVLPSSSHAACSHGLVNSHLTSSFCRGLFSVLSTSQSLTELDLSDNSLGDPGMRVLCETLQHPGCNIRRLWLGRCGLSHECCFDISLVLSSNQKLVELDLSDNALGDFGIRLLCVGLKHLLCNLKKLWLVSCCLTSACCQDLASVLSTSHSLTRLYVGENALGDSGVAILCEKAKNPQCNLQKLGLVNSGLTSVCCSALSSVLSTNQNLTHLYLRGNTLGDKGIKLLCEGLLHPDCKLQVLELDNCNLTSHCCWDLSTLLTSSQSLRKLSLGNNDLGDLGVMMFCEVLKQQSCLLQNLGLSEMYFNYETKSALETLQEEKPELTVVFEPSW
T3 sequence (P08183 whole entry): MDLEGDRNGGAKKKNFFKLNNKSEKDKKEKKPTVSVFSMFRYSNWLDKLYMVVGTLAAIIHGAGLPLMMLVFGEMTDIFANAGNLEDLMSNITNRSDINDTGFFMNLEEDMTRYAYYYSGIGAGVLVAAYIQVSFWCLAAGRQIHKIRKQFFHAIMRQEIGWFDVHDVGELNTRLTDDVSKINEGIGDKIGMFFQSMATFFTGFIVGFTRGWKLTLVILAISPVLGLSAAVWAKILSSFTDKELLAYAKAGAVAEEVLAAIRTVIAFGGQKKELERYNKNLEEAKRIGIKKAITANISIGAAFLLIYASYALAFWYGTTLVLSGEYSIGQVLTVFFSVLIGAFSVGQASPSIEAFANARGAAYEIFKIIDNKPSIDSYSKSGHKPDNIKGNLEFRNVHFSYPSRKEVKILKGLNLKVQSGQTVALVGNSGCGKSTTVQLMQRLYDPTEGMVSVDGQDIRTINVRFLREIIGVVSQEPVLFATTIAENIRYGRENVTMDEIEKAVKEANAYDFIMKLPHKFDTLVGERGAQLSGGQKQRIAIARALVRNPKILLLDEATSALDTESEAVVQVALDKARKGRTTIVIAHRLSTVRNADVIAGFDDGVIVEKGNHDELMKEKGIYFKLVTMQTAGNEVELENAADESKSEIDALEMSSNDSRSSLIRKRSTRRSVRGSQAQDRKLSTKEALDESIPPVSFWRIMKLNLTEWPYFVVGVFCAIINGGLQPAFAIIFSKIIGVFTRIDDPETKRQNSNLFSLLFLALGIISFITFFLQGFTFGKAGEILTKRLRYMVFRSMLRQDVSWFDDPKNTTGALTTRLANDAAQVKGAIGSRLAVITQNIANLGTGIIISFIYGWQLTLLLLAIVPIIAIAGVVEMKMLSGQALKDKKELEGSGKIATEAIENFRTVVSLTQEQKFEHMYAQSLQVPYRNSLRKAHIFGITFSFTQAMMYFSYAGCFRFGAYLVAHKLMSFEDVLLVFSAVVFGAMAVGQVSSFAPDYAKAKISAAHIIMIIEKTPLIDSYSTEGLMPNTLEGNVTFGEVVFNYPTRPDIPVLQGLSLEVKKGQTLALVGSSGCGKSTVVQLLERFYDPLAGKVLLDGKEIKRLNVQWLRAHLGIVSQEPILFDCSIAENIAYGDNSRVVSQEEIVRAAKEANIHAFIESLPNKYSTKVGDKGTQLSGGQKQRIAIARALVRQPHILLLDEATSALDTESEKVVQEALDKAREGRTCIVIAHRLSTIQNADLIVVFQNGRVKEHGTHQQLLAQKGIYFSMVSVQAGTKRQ
T2 sequence (Q12809 whole entry): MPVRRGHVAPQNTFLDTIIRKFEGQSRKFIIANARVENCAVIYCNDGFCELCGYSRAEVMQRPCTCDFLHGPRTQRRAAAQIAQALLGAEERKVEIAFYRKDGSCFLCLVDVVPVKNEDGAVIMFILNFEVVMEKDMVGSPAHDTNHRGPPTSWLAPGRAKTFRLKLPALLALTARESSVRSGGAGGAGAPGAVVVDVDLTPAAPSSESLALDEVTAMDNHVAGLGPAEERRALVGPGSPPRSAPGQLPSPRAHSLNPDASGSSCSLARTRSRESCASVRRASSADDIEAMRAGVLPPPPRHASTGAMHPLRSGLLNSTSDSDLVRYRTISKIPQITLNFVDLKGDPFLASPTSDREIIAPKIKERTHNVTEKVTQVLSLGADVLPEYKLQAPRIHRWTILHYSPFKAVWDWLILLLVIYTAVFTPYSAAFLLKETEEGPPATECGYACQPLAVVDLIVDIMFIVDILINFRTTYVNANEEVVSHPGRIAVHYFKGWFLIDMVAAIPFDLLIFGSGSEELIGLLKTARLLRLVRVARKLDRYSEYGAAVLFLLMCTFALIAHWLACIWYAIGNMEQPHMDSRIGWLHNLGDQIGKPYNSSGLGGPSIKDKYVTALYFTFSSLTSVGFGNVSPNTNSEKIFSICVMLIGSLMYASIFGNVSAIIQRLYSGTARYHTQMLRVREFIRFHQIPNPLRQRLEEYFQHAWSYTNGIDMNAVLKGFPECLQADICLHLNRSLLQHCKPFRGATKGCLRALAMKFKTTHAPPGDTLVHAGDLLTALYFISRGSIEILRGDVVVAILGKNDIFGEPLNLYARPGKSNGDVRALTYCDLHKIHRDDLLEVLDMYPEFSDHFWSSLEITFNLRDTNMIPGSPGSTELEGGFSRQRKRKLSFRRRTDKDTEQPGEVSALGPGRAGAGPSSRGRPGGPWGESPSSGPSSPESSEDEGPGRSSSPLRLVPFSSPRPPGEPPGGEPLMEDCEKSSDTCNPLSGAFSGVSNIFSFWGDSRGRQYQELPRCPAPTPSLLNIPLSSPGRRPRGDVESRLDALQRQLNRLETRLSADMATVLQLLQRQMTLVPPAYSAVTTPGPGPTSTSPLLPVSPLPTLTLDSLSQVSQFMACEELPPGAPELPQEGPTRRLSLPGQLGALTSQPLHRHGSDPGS

| SMILES | IC50 (NLRP3 [1]) | IC50 (NLRP3 [2]) | IC20 [3] | efflux ratio (human P-gp; read-out: ER (efflux ratio)) | Papp (human P-gp; read-out: Permeability) |
| --- | --- | --- | --- | --- | --- |
| Cc1nc(N[C@@H]2CCCN(CCCC(=O)N3CCC(O)C3)C2)nnc1-c1ccc2c(c1O)CCO2 (mixture of isomers) [Example 15, 1-(3-Hydroxypyrrolidin-1-yl)-4-[rac-(3R)-3-[[6-(4-hydroxy-2,3-dihydrobenzofuran-5-yl)-5-methyl-1,2,4-triazin-3-yl]amino]-1-piperidyl]butan-1-one; formic acid] | 58 nM | 33 nM |  |  |  |
| Cc1nc(N[C@@H]2CCCN(CC3(O)CC3)C2)nnc1-c1ccc2c(c1O)CCO2 [Example 4, 5-[3-[[(3R)-1-[(1-Hydroxycyclopropyl)methyl]-3-piperidyl]amino]-5-methyl-1,2,4-triazin-6-yl]-2,3-dihydrobenzofuran-4-ol] | 17 nM | 33 nM |  |  |  |
| COCCN1CCC[C@@H](Nc2nnc(-c3ccc4c(c3O)CCO4)c(C)n2)C1 [Example 5, 5-[3-[[(3R)-1-(2-Methoxyethyl)-3-piperidyl]amino]-5-methyl-1,2,4-triazin-6-yl]-2,3-dihydrobenzofuran-4-ol; formic acid salt] | 19 nM | 15 nM |  |  |  |
| CCN1C[C@@H](O)C[C@@H](Nc2nnc(-c3ccc4c(c3O)CCO4)c(C)n2)C1 [Example 6, (3S,5R)-1-Ethyl-5-[[6-(4-hydroxy-2,3-dihydrobenzofuran-5-yl)-5-methyl-1,2,4-triazin-3-yl]amino]piperidin-3-ol] | 28 nM | 23 nM |  |  |  |
| COC(C)CN1CCC[C@@H](Nc2nnc(-c3ccc4c(c3O)CCO4)c(C)n2)C1 (stereo partly drawn) [Example 7, 5-[5-Methyl-3-[[(3R)-1-(2-methoxypropyl)-3-piperidyl]amino]-1,2,4-triazin-6-yl]-2,3-dihydrobenzofuran-4-ol] | 62 nM | 40 nM |  |  |  |
| Cc1nc(N[C@@H]2CCCN(C3COC3)C2)nnc1-c1ccc2c(c1O)CCO2 [Example 8, 5-[5-Methyl-3-[[(3R)-1-(oxetan-3-yl)-3-piperidyl]amino]-1,2,4-triazin-6-yl]-2,3-dihydrobenzofuran-4-ol] | 120 nM |  |  |  |  |
| CNC(=O)CCCN1CCC[C@@H](Nc2nnc(-c3ccc4c(c3O)CCO4)c(C)n2)C1 [Example 10, 4-[(3R)-3-[[6-(4-hydroxy-2,3-dihydrobenzofuran-5-yl)-5-methyl-1,2,4-triazin-3-yl]amino]-1-piperidyl]-N-methyl-butanamide] | 27 nM | 40 nM | 2900 nM | 8.5 | 12.2 ×10⁻⁶ cm/s |
| Cc1nc(N[C@@H]2CCCN(CCCC(=O)N(C)C)C2)nnc1-c1ccc2c(c1O)CCO2 [Example 12, 4-[(3R)-3-[[6-(4-Hydroxy-2,3-dihydrobenzofuran-5-yl)-5-methyl-1,2,4-triazin-3-yl]amino]-1-piperidyl]-N,N-dimethyl-butanamide] | 53 nM | 30 nM |  |  |  |
| Cc1nc(N[C@@H]2CCCN(CCCC(=O)N(C)CCO)C2)nnc1-c1ccc2c(c1O)CCO2 [Example 14] | 76 nM |  |  |  |  |
| Cc1nc(N[C@@H]2CCCN(CCCC(=O)N3CCOCC3)C2)nnc1-c1ccc2c(c1O)CCO2 [Example 16, 4-[(3R)-3-[[6-(4-Hydroxy-2,3-dihydrobenzofuran-5-yl)-5-methyl-1,2,4-triazin-3-yl]amino]-1-piperidyl]-1-morpholino-butan-1-one] | 40 nM | 46 nM |  |  |  |
| Cc1nc(N[C@@H]2CCCN(CCn3cccn3)C2)nnc1-c1ccc2c(c1O)CCO2 [Example 17, 5-[5-Methyl-3-[[(3R)-1-(2-pyrazol-1-ylethyl)-3-piperidyl]amino]-1,2,4-triazin-6-yl]-2,3-dihydrobenzofuran-4-ol] | 35 nM | 76 nM |  |  |  |
| Cc1nc(N[C@@H]2CCCN(CCCc3nnn[nH]3)C2)nnc1-c1ccc2c(c1O)CCO2 [Example 18, 5-[5-Methyl-3-[[(3R)-1-[3-(1H-tetrazol-5-yl)propyl]-3-piperidyl]amino]-1,2,4-triazin-6-yl]-2,3-dihydrobenzofuran-4-ol; formic acid] | 23 nM | 23 nM |  |  |  |
| Cc1nc(N[C@@H]2CCCN(CCCC#N)C2)nnc1-c1ccc2c(c1O)CCO2 [Example 19, 4-[(3R)-3-[[6-(4-Hydroxy-2,3-dihydrobenzofuran-5-yl)-5-methyl-1,2,4-triazin-3-yl]amino]-1-piperidyl]butanenitrile] | 20 nM | 26 nM |  |  |  |
| Cc1nc(N[C@@H]2CCCN(CCCc3ncco3)C2)nnc1-c1ccc2c(c1O)CCO2 [Example 20, 5-[5-Methyl-3-[[(3R)-1-(3-oxazol-2-ylpropyl)-3-piperidyl]amino]-1,2,4-triazin-6-yl]-2,3-dihydrobenzofuran-4-ol] | 16 nM | 18 nM |  |  |  |
| Cc1nc(N[C@@H]2CCCN(CCc3nnn[nH]3)C2)nnc1-c1ccc2c(c1O)CCO2 [Example 21, 5-[5-Methyl-3-[[(3R)-1-[2-(1H-tetrazol-5-yl)ethyl]-3-piperidyl]amino]-1,2,4-triazin-6-yl]-2,3-dihydrobenzofuran-4-ol] | 20 nM | 166 nM |  |  |  |
| Cc1nc(N[C@@H]2CCCN(CCCS(C)(=O)=O)C2)nnc1-c1ccc2c(c1O)CCO2 [Example 22, 5-[5-Methyl-3-[[(3R)-1-(3-methylsulfonylpropyl)-3-piperidyl]amino]-1,2,4-triazin-6-yl]-2,3-dihydrobenzofuran-4-ol] | 58 nM | 54 nM |  |  |  |
